Measurements reported in US20220125807A1, “PHARMACEUTICAL COMBINATION OF WNT SIGNALING AND MACC1 INHIBITORS” (Max-Delbrück-Centrum für Molekulare Medizin in der …, priority 2019, published 2022).

How the values were obtained:
MACC1 [1] = assay: MACC1 mRNA expression by qRT-PCR in statin-treated HCT116 cells; assay type: cell-based, human; conditions: 1-10 μM statin, 24 h, relative to DMSO treated control
Protocol: (§1) HCT116 cells were treated with increasing amounts (1-10 μM) of different, clinically relevant statins dissolved in DMSO. Following 24 h of treatment cells were harvested for RNA and protein isolation. MACC1 mRNA expression was analyzed by qRT-PCR and is expressed relative to DMSO treated control samples. Protein amounts were analyzed by western blot.
(§2) HCT116, SW620 and SW480 colorectal carcinoma cells were purchased from ATCC. HCT116 cells were stably transduced with GFP/ MACC1-GFP plasmids to produce MACC1 overexpressing cell lines and SW620 cells were stably transduced by sh-control/sh-MACC1 plasmids to produce MACC1 knockdown cell lines. SW480 stable MACC1 overexpressing cell lines were created using pCDNA3.1 MACC1 plasmids and the control cells were produced using pCDNA3.1 empty plasmids followed clone selection using Gentamycin (Gibco). Knock-out of MACC1 in SW620 cells was achieved by CRISPR-Cas9 based gene editing followed by Puromycin (Gibco) based selection and subsequently the clones were picked using single cell sorting. Cells were cultured in RPMI supplemented with 10% FCS in 5% CO2 humidified atmosphere and sub passaged 2-3 times a week to maintain cultures subconfluent. Drugs were solubilized in DMSO, stock concentrations were 2 mM for niclosamide (Sigma-Aldrich, St Louis, Mo., USA), 2 mM for GSK1120212 (trametinib, Selleck Chemicals, Munich, Germany) and selumetinib (AZD6244, Selleck Chemicals, Munich, Germany) and 10 mM for statins (atorvastatin, lovastatin, fluvastatin, TCI Deutschland GmbH, Eschborn, Germany). All drugs were pre-diluted to 1000× final concentration in DMSO. Control cells were treated with equal amounts of DMSO.
RNA was isolated using the Gene Matrix Universal RNA Purification Kit (EURx, Poland) according to the manufacturer's instructions. RNA was quantified and 50 ng of RNA was reverse transcribed using a reaction mix containing MuLV reverse transcriptase, 10 mM MgCl2, 1× PCR-Buffer, 250 μM pooled dNTPs, 1U RNAse inhibitor and random hexamers (all from Applied Biosystems). The reaction was performed at 42° C. for 15 min, 99° C. for 5 min and subsequent cooling at 4° C. for 5 min. The cDNA was amplified using SYBR Green chemistry (Promega) using the LightCycler 480 II system (Roche Diagnostics) at the following PCR conditions: 95° C. for 2 min followed by 45 cycles of 95° C. for 7 s, 60° C. for 10 s and 72° C. for 20 s. The primers used for quantification are as follows: MACC1 Fwd 5′-[…]-3′ and Rev 5′-[…]-3′; S100A4 Fwd 5′-[…]-3′ and Rev 5′- […]-3′. Data analysis was performed with LightCycler 480 Software release 1.5.0 SP3 (Roche Diagnostics). Mean values was calculated from RT-qPCR duplicates. Each mean value of the expressed gene was normalized to the respective RP-II cDNA. […]

MACC1 [2] = assay: MACC1 protein by western blot in statin-treated HCT116 cells; assay type: cell-based, human; conditions: 1-10 μM statin, 24 h
Protocol: as §1, §2
Whole cell protein extraction was performed on 5×10^5 HCT116 and SW620 cells. Cells were lysed using RIPA buffer (50 mM Tris-HCT pH 7.5, 150 mM NaCl, 1% Nonidet P-40) supplemented with cOmplete Protease inhibitor (Roche) for 30 min at 4° C. The lysate was clarified and the protein content was measured using the BCA Kit (Pierce). 20 μg protein lysate were denatured with LDS-containing NuPage Loading buffer (invitrogen) and DTT for 10 min.
Proteins were then resolved in 10% SDS-PAGE followed by protein transfer onto PVDF membranes (BioRAD). The membrane was blocked with 5% w/v skim milk powder and 1% w/v BSA in TBST (10 mM Tris-HCL pH 8, 150 mM NaCl and 0.1% Tween 20) for 60 min. The membrane was incubated overnight with the respective primary antibodies (anti-MACC1, #HPA020081, Sigma Aldrich; S100A4, #5114, Dako and β-Actin, #31430, Invitrogen; Lamin B1, #12586s, Cell Signalling). The membranes were washed and further incubated with corresponding horseradish peroxidase-tagged secondary antibodies (anti-mouse IgG HRP-conjugated, #31430, Invitrogen and anti-rabbit IgG HRP-conjugated, #W4018, Promega) for 60 min. […]

HCT116 cells = assay: Wound healing (scratch) assay, IncuCyte, with Loewe synergy calculation; assay type: cell-based, human; conditions: HCT116, three concentrations (statin 5/2.5/1.25 μM, niclosamide 1/0.5/0.25 μM), 48 h, vs DMSO
Protocol: For wound healing assays the HCT116 human colon cancer cell line was used. HCT116 cells are endogenously positive for MACC1 and S100A4 expression at the mRNA and protein level. In addition, they show decreased motility when either marker is inhibited. For wound healing (scratch) experiments cells were passaged to a density of 6×10^5 per ml and cultured for 48 h. Cells were then harvested and counted. For wound healing assays 1.2×10^5 cells were seeded in 100 μl RPMI supplemented with 10% FCS in 96 well Image Lock Plates (Essen Bioscience, Hertfordshire, UK). Cells were allowed to adhere for 6 hours. Wounds in the monolayer were applied using the IncuCyte WoundMaker (Essen Bioscience). After applying the wounds 100 μl of 2-fold concentrated drug solutions were added. DMSO treated and untreated samples served as controls. For each drug three different (niclosamide 1 μM, 0.5 μM and 0.25 μM, each statin 5 μM, 2.5 μM and 1.25 μM, MEK1 inhibitors 1 μM, 0.1 μM and 0.01 μM) concentrations and combinations thereof were applied, each in triplicate. Of all statins, we tested lovastatin, fluvastatin and atorvastatin. Wound closure was monitored every second hour in the IncuCyte system (Essen Bioscience). A pre-established image collection of HCT116 was used to teach the software detection of cells and wound. Wound confluency was expressed relative to DMSO treated controls. Synergy was analyzed using combenefit 2.021. DMSO treated samples were set to 100%. To calculate synergy, we used the Loewe isobole equation model. For the calculations dose-response curves for three single concentrations and the nine combinations thereof were used. The Loewe model was applied since there is a certain degree of target interaction already shown: first, active Wnt-signaling is important for MACC1 driving tumor progression and invasiveness (Lemos C, Clin Cancer Res, 2016) and second, S100A4 is a Wnt-signaling target gene and is found in the MACC1 induced secretome. The three single concentrations and nine combinations thereof were expressed relative to the control.

HCT116-CMVp-Luc cells = assay: Xenograft mouse model of liver metastasis, intrasplenic transplantation, bioluminescence imaging; assay type: in vivo, SCID-beige mice; conditions: daily p.o., alone or combined, vs solvent; for Metastasis formation to the liver (luminescence), reduced dose: statin 1.5 mg/kg, niclosamide 164 mg/kg; for Metastasis formation to the liver (luminescence), maximum human dose equivalent: statin 13 mg/kg, niclosamide 328 mg/kg
Protocol: Severe combined immunodeficiency (SCID)-beige mice (n=10 per group) were intrasplenically transplanted with HCT116-CMVp-Luc cells and treated daily with solvent, 13 mg/kg atorvastatin or fluvastatin (p.o.), 328 mg/kg niclosamide (p.o.) or the combination of niclosamide with one of the statins, at the indicated doses. These doses correspond to the maximum human doses established for the statins and niclosamide. Metastasis to the liver was analyzed with bioluminescence imaging after an intraperitoneal application of 150 mg/kg D-Luciferin at the experimental endpoint. Following whole animal imaging livers were removed and analyzed as isolated organs.
Severe combined immunodeficiency (SCID)-beige mice (n=10 per group) were intrasplenically transplanted with HCT116-CMVp-Luc cells and treated daily with solvent, 1.5 mg/kg atorvastatin or fluvastatin (p.o.), 164 mg/kg niclosamide (p.o.) or the combination of niclosamide with one of the statins, at the indicated doses. These doses therefore correspond to 12.5% of the maximum human dose for the statins and 50% of the maximum human dose for niclosamide. Metastasis to the liver was analyzed with bioluminescence imaging after an intraperitoneal application of 150 mg/kg D-Luciferin at the experimental endpoint. Following whole animal imaging livers were removed and analyzed as isolated organs.
All experiments were performed in accordance with the United Kingdom Coordinated Committee on Cancer Research (UKCCCR) guidelines and approved by the responsible local authorities (State Office of Health and Social Affairs, Berlin, Germany). For in vivo drug testing a xenograft mouse model was used as described earlier (Stein 2009 Nat Med, Sack 2011 J Natl Cancer Inst,
Juneja & Kobelt 2017 Plos Biol). In brief, HCT116-CMVp-LUC cells (5×10^5 cells per mouse, resuspended in 50 μL PBS) were intrasplenically transplanted into 6-week-old female SCID beige (SCID bg/bg) mice. The animals were assigned randomly into treatment groups.
Drugs were administered as a suspension using a gavage tube. Both niclosamide (either 328 mg/kg or 164 mg/kg) and a statin (atorvastatin or fluvastatin, at 13 mg/kg or 1.5 mg/kg) were administered daily, orally. Control mice were treated with the appropriate volume of solvent solution. The in vivo experimentation and luminescence imaging were conducted as described below.
For luminescence imaging, mice were anesthetized with 5% Isoflurane and received intraperitoneally 150 mg/kg D-luciferin (Biosynth, Staad, Switzerland) dissolved in sterile PBS. Anesthesia was maintained with 2% isoflurane. Imaging was performed with the NightOWL LB 981 system (Berthold Technologies, Bad Wildbad, Germany). ImageJ version 1.48v (NIH, Bethesda, Md.) was used for color coding of signal intensity (presenting a 256 grayscale) and overlay pictures.

SMILES | MACC1 mRNA expression (MACC1 [1]) | MACC1 protein (MACC1 [2]) | Wound closure (cellular motility), single agents (HCT116 cells) | Metastasis formation to the liver (luminescence), reduced dose (HCT116-CMVp-Luc cells) | Metastasis formation to the liver (luminescence), maximum human dose equivalent (HCT116-CMVp-Luc cells)
O=C(O)C[C@H](O)C[C@H](O)/C=C/c1c(C2CC2)nc2ccccc2c1-c1ccc(F)cc1 [Pitavastatin] | shown to reduce | shown to reduce |  |  | 
CC(C)c1c(C(=O)Nc2ccccc2)c(-c2ccccc2)c(-c2ccc(F)cc2)n1CC[C@@H](O)C[C@@H](O)CC(=O)O [atorvastatin] | shown to reduce | shown to reduce | dose dependent reduction of wound closure ability | no reduction in metastasis formation | significantly reduced
O=C(Nc1ccc([N+](=O)[O-])cc1Cl)c1cc(Cl)ccc1O [niclosamide, 5-Chloro-N-(2-chloro-4-nitrophenyl)-2-hydroxybenzamide] |  |  | dose dependent reduction of wound closure ability | no reduction in metastasis formation | significantly reduced
CC[C@H](C)C(=O)O[C@H]1C[C@@H](C)C=C2C=C[C@H](C)[C@H](CC[C@@H]3C[C@@H](O)CC(=O)O3)[C@H]21 [lovastatin] | shown to reduce | shown to reduce | dose dependent reduction of wound closure ability |  | 
CC(C)n1c(/C=C/[C@H](O)C[C@H](O)CC(=O)O)c(-c2ccc(F)cc2)c2ccccc21 (racemic) [fluvastatin] | shown to reduce | shown to reduce | dose dependent reduction of wound closure ability | no reduction in metastasis formation | significantly reduced
